From PubChem BioAssay (NCI)
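These data come from cells grown in 96-well plates and exposed to compound for 48 hours at five concentrations. GI50 is the concentration that inhibits growth by half. Definition used: TGI = concentration required for complete inhibition of growth.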

How the values were obtained:
Assay in all cases: NCI tumour cell line growth inhibition, 48 h
[1] = system: PC-3 prostate
[2] = system: SW-620 colon
[3] = system: SK-MEL-5 melanoma
[4] = system: SF-539 CNS
[5] = system: SK-OV-3 ovarian
[6] = system: SN12C renal
[7] = system: HOP-92 NSCLC
[8] = system: HL-60(TB) leukemia
[9] = system: MDA-MB-435
[10] = system: A498 renal
[11] = system: K-562 leukemia
[12] = system: HCT-116 colon
[13] = system: NCI-H522 lung
[14] = system: DU-145 prostate
[15] = system: MALME-3M melanoma
[16] = system: SF-268 CNS
[17] = system: HCT-15 colon
[18] = system: MDA-MB-231 breast
[19] = system: NCI-H226 lung
[20] = system: SNB-75 CNS
[21] = system: OVCAR-4 ovarian
[22] = system: U251 CNS
[23] = system: OVCAR-5 ovarian
[24] = system: SNB-19 CNS
[25] = system: HCC-2998 colon
[26] = system: MOLT-4 leukemia
[27] = system: KM12 colon
[28] = system: IGROV1 ovarian
[29] = system: HT29 colon
[30] = system: OVCAR-3 ovarian
[31] = system: UACC-257 melanoma
[32] = system: NCI/ADR-RES ovarian
[33] = system: NCI-H460 lung
[34] = system: OVCAR-8 ovarian
[35] = system: HOP-62 NSCLC
[36] = system: COLO 205 colon
[37] = system: M14 melanoma
[38] = system: A549 NSCLC
[39] = system: MDA-MB-468 breast
[40] = system: SK-MEL-2 melanoma
[41] = system: UO-31 renal
[42] = system: CCRF-CEM leukemia
[43] = system: HS 578T breast
[44] = system: MCF7 breast
[45] = system: 786-0 renal
[46] = system: SK-MEL-28 melanoma
[47] = system: BT-549 breast
[48] = system: UACC-62 melanoma
[49] = system: T-47D breast
[50] = system: RPMI-8226 leukemia
[51] = system: ACHN renal
[52] = system: SF-295 CNS
[53] = system: RXF 393 renal
[54] = system: LOX IMVI melanoma
[55] = system: EKVX NSCLC
[56] = system: TK-10 renal
[57] = system: NCI-H23 lung
[58] = system: CAKI-1 renal
[59] = system: SR leukemia

Question: Which GI50 [1] does the source give for `O=C(NO)c1ccc(CNC(=O)[C@H]2Cc3c([nH]c4ccccc34)[C@H](c3ccc(Cl)cc3)N2)cc1` here?
Answer: 1.76 µM

Question: And the TGI [1]?
Answer: 9.17 µM

Question: What about the GI50 [2] of the same molecule?
Answer: 0.687 µM

Question: What about the TGI [2] of the same molecule?
Answer: 2.37 µM

Question: And the GI50 [3]?
Answer: 0.721 µM

Question: And the TGI [3]?
Answer: 2.71 µM

Question: And the GI50 [4]?
Answer: 1.14 µM

Question: And the TGI [4]?
Answer: 4.24 µM

Question: And the GI50 [5]?
Answer: 2.01 µM

Question: And the TGI [5]?
Answer: 5.9 µM

Question: And the GI50 [6]?
Answer: 2.41 µM

Question: What about the TGI [6] of the same molecule?
Answer: 9.15 µM

Question: What about the GI50 [7] of the same molecule?
Answer: 0.93 µM

Question: And the TGI [7]?
Answer: 4.48 µM

Question: What about the GI50 [8] of the same molecule?
Answer: 0.706 µM

Question: And the TGI [8]?
Answer: 3.13 µM

Question: What about the GI50 [9] of the same molecule?
Answer: 0.959 µM

Question: What about the TGI [9] of the same molecule?
Answer: 4.36 µM

Question: What about the GI50 [10] of the same molecule?
Answer: 2.06 µM

Question: What about the TGI [10] of the same molecule?
Answer: 9.06 µM

Question: And the GI50 [11]?
Answer: 0.72 µM

Question: And the TGI [11]?
Answer: > 22 µM

Question: And the GI50 [12]?
Answer: 0.609 µM

Question: What about the TGI [12] of the same molecule?
Answer: 3.72 µM

Question: And the GI50 [13]?
Answer: 0.584 µM

Question: And the TGI [13]?
Answer: 3.16 µM

Question: And the GI50 [14]?
Answer: 1.08 µM

Question: And the TGI [14]?
Answer: > 22 µM

Question: What about the GI50 [15] of the same molecule?
Answer: 0.41 µM

Question: What about the TGI [15] of the same molecule?
Answer: 2.31 µM

Question: What about the GI50 [16] of the same molecule?
Answer: 2.92 µM

Question: What about the TGI [16] of the same molecule?
Answer: 12.5 µM

Question: What about the GI50 [17] of the same molecule?
Answer: 4.26 µM

Question: And the TGI [17]?
Answer: > 22 µM

Question: And the GI50 [18]?
Answer: 0.887 µM

Question: What about the TGI [18] of the same molecule?
Answer: 4 µM

Question: What about the GI50 [19] of the same molecule?
Answer: 2.27 µM

Question: What about the TGI [19] of the same molecule?
Answer: 11.6 µM

Question: And the GI50 [20]?
Answer: 2.26 µM

Question: What about the TGI [20] of the same molecule?
Answer: 7.58 µM

Question: And the GI50 [21]?
Answer: 3.73 µM

Question: And the TGI [21]?
Answer: > 22 µM

Question: What about the GI50 [22] of the same molecule?
Answer: 1.21 µM

Question: What about the TGI [22] of the same molecule?
Answer: 5.8 µM

Question: And the GI50 [23]?
Answer: 0.456 µM

Question: And the TGI [23]?
Answer: 3.01 µM

Question: What about the GI50 [24] of the same molecule?
Answer: 2.26 µM

Question: And the TGI [24]?
Answer: 5.3 µM

Question: And the GI50 [25]?
Answer: 0.605 µM

Question: What about the TGI [25] of the same molecule?
Answer: 3.08 µM

Question: What about the GI50 [26] of the same molecule?
Answer: 0.563 µM

Question: What about the TGI [26] of the same molecule?
Answer: > 22 µM

Question: What about the GI50 [27] of the same molecule?
Answer: 2.36 µM

Question: And the TGI [27]?
Answer: 6.71 µM

Question: And the GI50 [28]?
Answer: 1.2 µM

Question: What about the TGI [28] of the same molecule?
Answer: 4.27 µM

Question: What about the GI50 [29] of the same molecule?
Answer: 0.838 µM

Question: And the TGI [29]?
Answer: > 22 µM

Question: And the GI50 [30]?
Answer: 1.23 µM

Question: What about the TGI [30] of the same molecule?
Answer: 9.15 µM

Question: What about the GI50 [31] of the same molecule?
Answer: 1.23 µM

Question: And the TGI [31]?
Answer: > 22 µM

Question: What about the GI50 [32] of the same molecule?
Answer: 3.35 µM

Question: What about the TGI [32] of the same molecule?
Answer: > 22 µM

Question: And the GI50 [33]?
Answer: 1.02 µM

Question: What about the TGI [33] of the same molecule?
Answer: > 22 µM

Question: And the GI50 [34]?
Answer: 0.942 µM

Question: What about the TGI [34] of the same molecule?
Answer: > 22 µM

Question: And the GI50 [35]?
Answer: 1.27 µM

Question: What about the TGI [35] of the same molecule?
Answer: 7.42 µM

Question: What about the GI50 [36] of the same molecule?
Answer: 0.719 µM

Question: What about the TGI [36] of the same molecule?
Answer: 3.38 µM

Question: And the GI50 [37]?
Answer: 2.2 µM

Question: What about the TGI [37] of the same molecule?
Answer: 8.42 µM

Question: What about the GI50 [38] of the same molecule?
Answer: 3.97 µM

Question: And the TGI [38]?
Answer: > 22 µM

Question: And the GI50 [39]?
Answer: 0.38 µM

Question: And the TGI [39]?
Answer: 1.14 µM

Question: What about the GI50 [40] of the same molecule?
Answer: 2.77 µM

Question: And the TGI [40]?
Answer: 7.03 µM

Question: And the GI50 [41]?
Answer: 2.64 µM

Question: What about the TGI [41] of the same molecule?
Answer: 6.27 µM

Question: What about the GI50 [42] of the same molecule?
Answer: 0.617 µM

Question: What about the TGI [42] of the same molecule?
Answer: > 22 µM

Question: What about the GI50 [43] of the same molecule?
Answer: 1.01 µM

Question: And the TGI [43]?
Answer: > 22 µM

Question: What about the GI50 [44] of the same molecule?
Answer: 0.874 µM

Question: What about the TGI [44] of the same molecule?
Answer: 8.36 µM

Question: And the GI50 [45]?
Answer: 3.71 µM

Question: What about the TGI [45] of the same molecule?
Answer: 14.2 µM

Question: What about the GI50 [46] of the same molecule?
Answer: 0.878 µM

Question: And the TGI [46]?
Answer: 3.62 µM

Question: And the GI50 [47]?
Answer: 4.93 µM

Question: What about the TGI [47] of the same molecule?
Answer: 11 µM

Question: What about the GI50 [48] of the same molecule?
Answer: 0.538 µM

Question: What about the TGI [48] of the same molecule?
Answer: 2.94 µM

Question: What about the GI50 [49] of the same molecule?
Answer: 0.6 µM

Question: What about the TGI [49] of the same molecule?
Answer: 5.44 µM

Question: And the GI50 [50]?
Answer: 0.564 µM

Question: What about the TGI [50] of the same molecule?
Answer: > 22 µM

Question: What about the GI50 [51] of the same molecule?
Answer: 3.05 µM

Question: What about the TGI [51] of the same molecule?
Answer: 9.57 µM

Question: And the GI50 [52]?
Answer: 1.81 µM

Question: What about the TGI [52] of the same molecule?
Answer: 4.75 µM

Question: And the GI50 [53]?
Answer: 0.455 µM

Question: And the TGI [53]?
Answer: 2.25 µM

Question: And the GI50 [54]?
Answer: 1.09 µM

Question: What about the TGI [54] of the same molecule?
Answer: 4.76 µM

Question: And the GI50 [55]?
Answer: 2.65 µM

Question: And the TGI [55]?
Answer: 16.4 µM

Question: And the GI50 [56]?
Answer: 1.51 µM

Question: What about the TGI [56] of the same molecule?
Answer: 14.6 µM

Question: What about the GI50 [57] of the same molecule?
Answer: 1.33 µM

Question: What about the TGI [57] of the same molecule?
Answer: 4.26 µM

Question: What about the GI50 [58] of the same molecule?
Answer: 2.33 µM

Question: And the TGI [58]?
Answer: 9.73 µM

Question: And the GI50 [59]?
Answer: 1.15 µM

Question: What about the TGI [59] of the same molecule?
Answer: > 22 µM
